From patent US12157740B2, “Triazolopyridines and triazolopyrimidines that lower stress-induced p-tau” (NantNeuro, LLC, priority 2015, dated 2024)

Tests used:
[1] = system: tau and phospho-tau in SHSY-5Y cells; experiment: CRF-induced tau, p-tau and sAPPα changes in SHSY-5Y cells; format: cell-based; conditions: for p-tau/tau ratio: FIG. 32C
J20 mice [2] = experiment: J03 pilot study #1 in J20 mice (SQ, 12 days); format: in vivo, mouse
Procedure: (§1) Animal experiments were performed using J20 mice. The J20 mouse is a model of for Alzheimer's disease. This model overexpresses human APP with two mutations linked to familial Alzheimer's disease (the APP KM670/671NL (Swedish) and 5APP V717F (Indiana) mutations).
In pilot study #1, J20 mice housed singly were treated by SQ injection of J03 in PEG/b-MCD at 10 mkd for 12 days. NOR analysis of object memory (N=5/group) was performed. The results are illustrated in FIGS. 10D-10I. […] There was no difference in Aβ1-40 (FIG. 10E), but a decrease in Aβ1-42 (FIG. 10F).

tau and p-tau = experiment: effect of J03 and J19 on tau and p-tau (FIG. 39E-39F, system not given); conditions: FIG. 39E
Description: JI9 decreased tau and both J03 and JI9 decreased p-tau (FIG. 39E). Therefore, while the p-tau/tau ratio looks unchanged for J19 FIG. 39F. This is due to the tau decrease and not due to a lack of effect.

p-tau = experiment: cortisol-induced p-tau increase in vitro (screen of clinical library of CRF-1 inhibitors); format: cell-based
Description: To identify therapeutic candidates, a clinical library of CRF-1 inhibitors to was screened to determine their effects on cortisol-induced p-tau increases. […] J03 was shown specifically to inhibit stress-induced p-tau increases by cortisol in vitro.

[3] = system: tau and p-tau in SH-Sy5Y cells; experiment: screens for tau and p-tau levels in SH-Sy5Y cells (no CRF stated); format: cell-based; conditions: screen of FIG. 28B
Procedure: As described below, in vitro studies were performed using SHSY-5Y cells. These cells are a useful neurological model that differentiate into cells with morphological and biochemical characteristics of mature neurons including mature isoforms of tau. […]

CRFR2 = target: T1, CRFR2 (Homo sapiens, UniProt Q13324); experiment: binding to CRFR2 (Ki)
T1 sequence (Q13324 1-411): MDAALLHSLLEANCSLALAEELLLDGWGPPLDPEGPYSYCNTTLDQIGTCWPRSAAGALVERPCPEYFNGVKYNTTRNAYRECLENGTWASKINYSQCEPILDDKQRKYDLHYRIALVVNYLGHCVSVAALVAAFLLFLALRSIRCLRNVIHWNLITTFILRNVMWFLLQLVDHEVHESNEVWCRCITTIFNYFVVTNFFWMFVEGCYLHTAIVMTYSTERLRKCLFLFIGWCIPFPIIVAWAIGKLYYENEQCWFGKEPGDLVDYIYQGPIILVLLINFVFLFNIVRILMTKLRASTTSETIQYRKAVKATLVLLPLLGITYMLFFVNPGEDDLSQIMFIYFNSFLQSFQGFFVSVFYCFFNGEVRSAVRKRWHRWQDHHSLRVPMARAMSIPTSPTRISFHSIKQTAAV

[4] = in vivo pharmacokinetics, plasma and brain levels; design: species or system mouse
J20 mice [5] = experiment: J17 pilot study in J20 mice (oral, 28 days); format: in vivo, mouse; conditions: oral 28 days
Procedure: as §1
In a J17 pilot study (#1 pilot study) male and female J20 mice were housed singly and treated with J17 at 10 rnkd by oral delivery for 28 days.

J20 mice [6] = experiment: J03 pilot study #2 in J20 mice (oral, longer duration); format: in vivo, mouse
Procedure: as §1
Based on these promising results, the study was repeated (pilot study #2) with oral delivery and a longer duration.

[7] = CRF-1 at 100 nM for 3 days, compound at 20 nM, FIG. 29A
[8] = oral delivery, longer duration, J20 mice

Ki (CRFR2): > 10 µM
brain levels ([4]; 10 mk subcutaneous (SQ) single injection, J20 mice, FIG. 10C): low
brain levels at the peak after oral delivery, compared with SQ ([4]; oral delivery by feeding (not gavage) at 10 mg/kg): slightly higher
Compound: CCC(COC)n1nnc2c(Nc3ccc(OC)cc3C)nc(C)cc21 (stereo not drawn) [J03, N-(4-Methoxy-2-methylphenyl)-1-[1-(methoxymethyl)propyl]-6-methyl-1H-1,2,3-triazolo[4,5-c]pyridine-4-amine]
p-tau [1, 7]: decreased
total tau [1, 7]: decreased
tau after exposure to CRF ([1]; FIG. 21D): decreased
p-tau after exposure to CRF ([1]; FIG. 21E): decreased
tau increases induced by CRF ([1]; SHSY-5Y cells cultured without serum, CRF at increasing concentrations, FIG. 10A): reduces
phospho-tau (p-tau) increases induced by CRF ([1]; SHSY-5Y cells cultured without serum, CRF at increasing concentrations, FIG. 10B): reduces
sAPPα increase, significance ([1]; at 100 nM CRF, FIG. 32D): reached significance
p-tau/tau ratio ([1]; at 50 and 100 nM CRF): highly significantly decreased
tau ([1]; in the absence of CRF and in the presence of 100 nM CRF, FIG. 32A): significantly decreased
p-tau/tau ratio ([1]; in the absence of CRF): decreased
p-tau ([1]; in the presence and absence of CRF, FIG. 32B): significantly reduced
sAPPα after exposure to CRF ([1]; versus control, FIG. 21C): lower
sAPPα ([1]; with and without CRF, FIG. 32D): trend for sAPPα to be higher
NOR analysis of object memory (behavior) (J20 mice [2]; J20 mice housed singly, SQ 10 mkd in PEG/b-MCD for 12 days, FIG. 10D): slight improvement
P-tau (J20 mice [2]; SQ 10 mkd, 12 days): significantly lower
Aβ1-40 (J20 mice [2]; SQ 10 mkd, 12 days, FIG. 10E): no difference
Aβ1-42 (J20 mice [2]; SQ 10 mkd, 12 days, FIG. 10F): decrease
Aβ1-40/1-42 ratio (J20 mice [2]; SQ 10 mkd, 12 days, FIG. 10G): significantly increased
SAPP (J20 mice [2]; SQ 10 mkd, 12 days, FIG. 10H): very slightly increased
sAPP/Aβ1-42 ratio (J20 mice [2]; SQ 10 mkd, 12 days, FIG. 10I): very slightly increased
ratio (p-tau and tau) (J20 mice [2]; SQ 10 mkd, 12 days, great individual variation): slightly higher
total tau (J20 mice [2]; SQ 10 mkd, 12 days, largely due to one mouse, FIG. 11A): decreased
p-tau (tau and p-tau): decreased
stress-induced p-tau increases by cortisol (p-tau): inhibit
p-tau [3]: neither J14 nor J03 decreased
total tau [3]: neither J14 nor J03 decreased
activity (J20 mice [5]; male and female J20 mice housed singly, not significant, FIG. 24A): lowered
novel object preference, overall (J20 mice [5]; all mice, FIG. 24B): increased
sAPPα (J20 mice [5]; both genders, FIG. 25A): increase
ratio sAPPα/sAPPβ (J20 mice [5]; males, FIG. 25C): slight increase
novel location assay / preference (J20 mice [6]; [8]): performed well
novel object assay (J20 mice [6]; [8]): performed well
sAPPα (J20 mice [6]; oral, FIG. 13A): increased slightly
sAPPβ (J20 mice [6]; oral, FIG. 13B): unchanged
sAPPα/sAPPβ ratio (J20 mice [6]; oral, FIG. 13C): slightly increased
Aβ1-40 (J20 mice [6]; oral, FIG. 14A): unchanged
Aβ1-42 (J20 mice [6]; oral, FIG. 14B): unchanged
Aβ1-40/Aβ1-42 ratio (J20 mice [6]; oral, FIG. 14C): unchanged
p-tau (J20 mice [6]; oral, decrease reached statistical significance, FIG. 16): decreased
